Data set [1] has as its target T1, CB1R (Homo sapiens, UniProt P21554). As to the kind of experiment: cell-based. Type of data set: cell-based. The procedure:
The cAMP BRET experiments were performed as previously described. Briefly, hCB1R HEK293 cells were transfected with 5 µg/10 cm dish of the CAMYEL biosensor using polyethylenimine. After 24 h, the cells were plated into white 96-well plates (PerkinElmer) at a density of 60,000 cells/well.
Cyclic AMP accumulation was measured using a DiscoverX HitHunter® cAMP Assay for Small Molecules (DiscoverX, Fremont, CA). hCB1R CHO cells were seeded at a density of 40,000 cells/well in 96-well white plates and grown overnight at 37 °C, 5% CO2 in a humidified incubator. […] Vehicle concentration was 1% DMSO, 0.1% BSA. Following agonist incubation, 15 µl of cAMP antibody reagent and 60 µl of working cAMP detection solution (containing 19 parts cAMP lysis buffer, 5 parts Substrate Reagent 1, 1 part Substrate Reagent 2 and 25 parts of cAMP Solution D) were added to all wells. Assay plates were incubated in the dark for 1 hr at room temperature, followed by addition of 60 µl cAMP solution A to all wells and incubation for 3 hr at room temperature in the dark. Plates were read using a GloMax Discover plate-reader (Promega, Madison, WI).

Data set [2] has as its system 44 different receptors, ion channels and enzymes. The note with it: 1 µM. The procedure: (§1) The screen assesses the selectivity of the compound on a diverse panel of targets that includes GPCRs, drug transporters, ion channels, nuclear receptors, kinases, and other non-kinase enzymes. The screen employs radioligand binding or enzyme assays for these 44 targets.
(§2) For receptor assays, binding was calculated as percent inhibition of the binding of a radioactively labeled ligand specific for each target. For enzyme assays, the inhibition effect was calculated as percent inhibition of control enzyme activity. Tests were performed in duplicate, and results are averages of those two tests. See https://www.eurofinsdiscoveryservices.com.

Data set [3] relates to C57Bl/6J mice. Type of data set: in vivo. The following applies: 10 mg/kg i.p., 30 min before test, compared to vehicle. The source says:
(i.p.) before testing. The EPM was composed of 4 opaque-white arms (2 opposite arms closed, 2 opposite arms open), arranged in a plus shape, with an open center. The dimensions were as follows; maze elevation (38.7cm), open arm (L:30.5 cm, W:5 cm, H:0 cm), closed arm (L:30.5 cm, W:5 cm, H:15.2 cm) and center (5 cm x 5 cm). The experiment mouse was placed in the center of the maze and allowed to freely explore the maze for 8-min (50lux), while being tracked with an overhead camera. Open and closed arm times were recorded and collected by Biobserve Viewer3 software. The percentage of time spent in the open arms as compared to closed arms and center time was calculated and expressed as a percent of time spent in the open or closed arms of the maze.

Data set [4] addresses T2, 5HT1A (Homo sapiens, UniProt P08908).
T2 construct: Eurofins Cerep
T2 sequence (P08908 1-422): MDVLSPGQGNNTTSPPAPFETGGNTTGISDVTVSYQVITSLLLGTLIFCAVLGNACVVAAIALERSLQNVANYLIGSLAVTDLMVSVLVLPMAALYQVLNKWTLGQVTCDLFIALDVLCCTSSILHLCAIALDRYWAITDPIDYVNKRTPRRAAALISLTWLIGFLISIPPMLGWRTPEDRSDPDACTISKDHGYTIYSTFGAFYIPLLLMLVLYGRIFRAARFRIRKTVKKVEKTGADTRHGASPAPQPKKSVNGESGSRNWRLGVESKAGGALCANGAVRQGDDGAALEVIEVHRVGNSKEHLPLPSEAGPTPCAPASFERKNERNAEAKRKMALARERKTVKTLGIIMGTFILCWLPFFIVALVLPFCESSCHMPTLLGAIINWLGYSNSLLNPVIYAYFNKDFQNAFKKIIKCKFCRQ
The data set is described as follows: SafetyScreen44 panel: 5HT1A. The following applies: 1 µM. It is filed as binding. The procedure:
as §1, §2

Data set [5] concerns the target T3, 5HT1B (Rattus norvegicus, UniProt P28564).
T3 construct: Eurofins Cerep
As to the kind of experiment: SafetyScreen44 panel: 5HT1B. The note with it: 1 µM. Type of data set: binding. On the procedure:
as §1, §2

In data set [6] the target is T1, CB1R. As to the kind of experiment: Equilibrium binding assay with [3H]CP55,940 in hCB1R CHO cells. The procedure: Non-specific binding was defined in the presence of 10 µM WIN55,212-2.
Radioactivity was quantitated by liquid scintillation spectrometry. Specific binding was defined as the difference between the binding that occurred in the presence and absence of 10 µM of WIN55212. Data were analyzed by nonlinear regression analysis of allosteric modulator titration model using GraphPad Prism 8.0 (GraphPad, San Diego, CA).

Data set [7] has as its target T4, 5HT2A (Homo sapiens, UniProt P28223).
T4 construct: Eurofins Cerep
As to the kind of experiment: SafetyScreen44 panel: 5HT2A. It is filed as binding. The note with it: 1 µM. An excerpt:
See https://www.eurofinsdiscoveryservices.com.

Data set [8] relates to Male Sprague Dawley rats. The note with it: 10 mg/kg i.p. On the procedure: (§3) Male Sprague Dawley rats (PD>63) were trained on a CAR protocol and responding following drug exposure was determined. […] Animals were trained to learn a house light (CS) as predictive of an avoidable 0.6mA scrambled foot shock (US). Each session consisted of 50 trials and animals avoided >70% of trials on the final acquisition session were tested for CAR during vehicle baseline, drug exposure, and re-emergence. In addition to CAR testing, both temperature and catalepsy were recorded in these animals (measure of potential CB1R agonism). Temperature: recorded on first day of drug exposure, prior to injection and 60-90-min. following drug exposure.

The nature of data set [9]: in vivo. Further details: species or system male C57Bl/6 mice. On the procedure:
Microsomal stability assays were conducted by Cyprotex Ltd (Macclesfield, UK).
Blood samples (approximately 60 µL; n=3 mice per time-point) were taken at 0.08, 0.25, 0.5, 1, 2, 4, 6 and 8 hrs. Immediately after collection of blood, brain samples were collected from the set of three mice at each time point. Plasma samples were separated by centrifugation of whole blood, while brain samples were homogenized in ice-cold phosphate buffer saline (pH 7.4). Total homogenate volume was three times the brain weight. Plasma and homogenates were stored below -70±10 °C until analysis. The extraction procedure for plasma/brain samples and the spiked plasma/brain calibration standards were identical. To a 25 µL volume of study sample (dilution factor applied to some samples) or spiked plasma/brain calibration standard, 100 µL of internal standard prepared in acetonitrile (Glipizide, 500 ng/mL) was added, except for blank where 100 µL of acetonitrile was added. […] Pharmacokinetic parameters were calculated using the non-compartmental analysis tool of Phoenix WinNonlin® (Version 7.0). Areas under the concentration time curve (AUC) values were calculated by linear trapezoidal rule.

Data set [10] concerns Male Sprague Dawley rats. As to the kind of experiment: Conditioned avoidance response (CAR). Type of data set: in vivo. The note with it: rat, in vivo. On the procedure: as §3
The mark [11] stands for this setting: male, C57Bl/6, mouse, ip, 10 mg/kg.

“And” between values parts separate entries of the source, which are not always exact repeats. Equal values may be shown once.

T1 sequence (P21554 whole entry): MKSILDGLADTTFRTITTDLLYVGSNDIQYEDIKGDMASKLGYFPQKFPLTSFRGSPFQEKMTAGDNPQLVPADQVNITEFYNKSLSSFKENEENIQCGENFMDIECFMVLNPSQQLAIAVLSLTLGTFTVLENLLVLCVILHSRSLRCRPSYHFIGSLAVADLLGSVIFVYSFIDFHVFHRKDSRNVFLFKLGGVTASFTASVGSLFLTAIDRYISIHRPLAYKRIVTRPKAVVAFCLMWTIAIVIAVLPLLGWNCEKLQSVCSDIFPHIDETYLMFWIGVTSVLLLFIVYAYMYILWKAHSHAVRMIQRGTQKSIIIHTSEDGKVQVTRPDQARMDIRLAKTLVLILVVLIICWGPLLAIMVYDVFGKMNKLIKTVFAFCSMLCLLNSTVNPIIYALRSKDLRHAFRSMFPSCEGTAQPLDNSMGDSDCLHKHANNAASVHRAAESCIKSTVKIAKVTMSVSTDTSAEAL
T3 sequence (P28564 whole entry): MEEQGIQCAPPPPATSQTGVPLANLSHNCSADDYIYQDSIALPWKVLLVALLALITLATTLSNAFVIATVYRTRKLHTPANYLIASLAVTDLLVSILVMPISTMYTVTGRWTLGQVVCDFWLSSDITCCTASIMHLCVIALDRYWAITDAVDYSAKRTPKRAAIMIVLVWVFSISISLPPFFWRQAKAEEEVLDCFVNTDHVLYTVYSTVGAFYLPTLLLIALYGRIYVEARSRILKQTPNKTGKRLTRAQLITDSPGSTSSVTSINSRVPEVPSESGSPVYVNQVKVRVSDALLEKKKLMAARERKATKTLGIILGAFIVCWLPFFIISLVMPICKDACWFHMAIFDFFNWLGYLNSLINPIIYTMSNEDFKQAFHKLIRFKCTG
T4 sequence (P28223 whole entry): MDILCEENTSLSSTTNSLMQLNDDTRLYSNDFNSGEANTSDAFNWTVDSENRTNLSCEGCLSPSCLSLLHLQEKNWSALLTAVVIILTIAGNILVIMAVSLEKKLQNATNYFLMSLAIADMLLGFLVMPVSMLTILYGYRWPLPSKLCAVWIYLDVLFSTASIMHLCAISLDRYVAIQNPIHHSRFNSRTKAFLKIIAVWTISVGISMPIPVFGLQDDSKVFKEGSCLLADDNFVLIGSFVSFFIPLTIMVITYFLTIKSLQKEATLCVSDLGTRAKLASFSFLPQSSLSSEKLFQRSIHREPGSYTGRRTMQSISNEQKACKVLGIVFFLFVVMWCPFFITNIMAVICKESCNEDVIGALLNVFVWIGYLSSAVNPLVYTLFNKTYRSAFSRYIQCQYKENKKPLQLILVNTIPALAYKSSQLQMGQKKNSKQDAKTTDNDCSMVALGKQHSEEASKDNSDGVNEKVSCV

By IC50 is commonly meant the concentration that gives 50% inhibition. Higher therefore signals weaker potency. The term EC50 denotes the concentration needed to bring the measured effect to its halfway point. A low value points to an effect from little substance. In general, AUC(0-t) refers to the area under the concentration-time curve up to a stated or last time point. Read a high AUC(0-t) as high exposure. As a reminder, the Cmax is the peak of the concentration-time curve. Usually Tmax stands for the time at which the peak concentration occurs. One may read the half-life as the time in which the quantity being followed falls by half. Low readings indicate rapid decline, high ones slow decline. `CCc1c(-c2nnc(Nc3ccccc3)o2)[nH]c2ccc(Cl)cc12` [ABM300, 5-(5-chloro-3-ethyl-1H-indol-2-yl)-N-phenyl-1,3,4-oxadiazol-2-amine]: in [1], the IC50 was 379 nM and 355 nM and 380 nM. Moreover, the “binding to SafetyScreen44 targets” value in data set [2] is reported as “did not display any significant binding”. Moreover, the “time spent in the open arms (EPM)” value in [3] is given as “did not affect”. In addition, the “binding to 5HT1A” value in data set [4] is given as “did not display any significant binding”. The “binding to 5HT1B” value in [5] was “did not display any significant binding”. Also, in data set [6], the Kb was 178 nM. The same compound showed an EC50 in data set [6] (EC50, increase in specific binding of [3H]CP55,940, hCB1R CHO, [3H]CP55,940 0.5 nM) of 132 nM. For the same compound, the “Emax, increase in specific binding of [3H]CP55,940” value in data set [6] (hCB1R CHO, [3H]CP55,940 0.5 nM) is given as 328 ± 47%. The compound further had an EC50 in [6] (pEC50, increase in specific binding of [3H]CP55,940, hCB1R CHO, [3H]CP55,940 0.5 nM) of 126 nM. In data set [7], the “binding to 5HT2A” value is given as “did not display any significant binding”. Further, in [8], the catalepsy entry is “did not induce catalepsy” and the “changes in body temperature” value is “did not induce catalepsy, or changes in body temperature”. For the same compound, in [9] (male, C57Bl/6, mouse, 10 mg/kg i.p., at 30 min, read-out: brain concentration), the concentration at 30 min was 374 ± 39 ng/mL. Further, in [9] (setting [11]), the AUC(0-t) amounted to 2050 ng·h/mL; the peak concentration (Cmax) is 866 ng/mL and 412 ng/g. Besides, the Tmax in data set [9] (male, C57Bl/6, mouse, ip, 10 mg/kg, Tmax) amounted to 0.5 h. In addition, the AUClast in [9] (mouse, ip, 10 mg/kg) was 1577.92 ng·h/g. Besides, the half-life in [9] (mouse, ip, 10 mg/kg i.p., male C57Bl/6 mice) was roughly 2 h. Further, in data set [10], the “avoidance behavior in CAR” value is listed as “no effect”.
